pIC50: −log10 of the molar value. Converted amounts (≈) assume the structure as drawn. Read-outs that look alike come from different tables or passages of the source.
Columns and labels:
[1] = biological target: human (hACC2) ACC2 (Homo sapiens, UniProt O00763); assay: In vitro Acetyl-CoA Carboxylase (ACC) inhibition assay (ADP-Glo), hACC2; type: biochemical
Protocol: The detailed procedure is as follows. […] 10 μL ADP glo reagent was added. […] 20 μL kinase detection reagent was added.
“NA” stands for “not assayed.”

[2] = system: Fusarium virguliforme (Fv); assay: Growth inhibition assay of fungal pathogens; type: cell-based; conditions: 48 h, 48 hours, read-out: Concentration at 90% Inhibition Fv
Outline: (§1)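 Percent growth inhibition was derived from 48 h OD600 and visual scores relative to 2% DMSO, with blank background subtraction. Fungi were grown from spores in 17% V8 liquid medium, R. solani from 1.5 mm plugs in ¼ PDB, with compound at final 50/10/2 or 2/0.4/0.08 ppm.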

[3] = system: Diplodia maydis (Dm); assay: Growth inhibition assay of fungal pathogens; type: cell-based; conditions: Stenocarpella maydis, 48 h, read-out: Concentration at 90% Inhibition Dm
Outline: as §1

[4] = system: Rhizoctonia solani (Rs); assay: Growth inhibition assay of fungal pathogens; type: cell-based; conditions: 48 h, read-out: Concentration at 90% Inhibition Rs
Outline: as §1

[5] = system: Septoria tritici (St); assay: Growth inhibition assay of fungal pathogens; type: cell-based; conditions: 48 hours
Outline: as §1

[6] = system: Fusarium moniliforme (Fm); assay: Growth inhibition assay of fungal pathogens; type: cell-based; conditions: Fusarium verticillioides, 48 h, 48 hours, read-out: Concentration at 90% Inhibition Fm
Outline: as §1

[7] = system: Collectotrichum graminicola (Cg); assay: Growth inhibition assay of fungal pathogens; type: cell-based; conditions: 48 h, read-out: Concentration at 90% Inhibition Cg
Outline: as §1

[8] = system: Botrtyis cinerea (Bc); assay: Growth inhibition assay of fungal pathogens; type: cell-based; conditions: 48 h, read-out: Concentration at 90% Inhibition Bc
Outline: as §1

[9] = system: Phytophthora capsici (Pc); assay: Growth inhibition assay of fungal pathogens; type: cell-based; conditions: 48 hours
Outline: as §1

[10] = system: C. albicans ATCC 90028; assay: Anti-Fungal (Candida) Activity Assay, broth microtiter MIC; type: cell-based; conditions: read-out: MIC C. albicans ATCC 90028
Outline: (§2)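 In CLSI M27-A3 microtiter plates, yeast from overnight agar culture is inoculated in RPMI 1640–MOPS at a standard-curve density. The MIC is the endpoint scored visually against growth control at 48 h.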

[11] = system: C. krusei ATCC 6258; assay: as above; type: cell-based; conditions: Pichia kudriavzevii, read-out: MIC C. krusei ATCC 6258
Outline: as §2

[12] = system: C. parapsilosis ATCC 22019; assay: as above; type: cell-based; conditions: Lodderomyces parapsilosis, read-out: MIC C. parapsilosis ATCC 22019
Outline: as §2

[13] = biological target: fungal (fACC2) ACC2 (UniProt Q00955); conditions: read-out: fACC2 IC50; fungal ACC2, ADP-Glo
fungal (fACC2) ACC2, sequence (Q00955 whole entry): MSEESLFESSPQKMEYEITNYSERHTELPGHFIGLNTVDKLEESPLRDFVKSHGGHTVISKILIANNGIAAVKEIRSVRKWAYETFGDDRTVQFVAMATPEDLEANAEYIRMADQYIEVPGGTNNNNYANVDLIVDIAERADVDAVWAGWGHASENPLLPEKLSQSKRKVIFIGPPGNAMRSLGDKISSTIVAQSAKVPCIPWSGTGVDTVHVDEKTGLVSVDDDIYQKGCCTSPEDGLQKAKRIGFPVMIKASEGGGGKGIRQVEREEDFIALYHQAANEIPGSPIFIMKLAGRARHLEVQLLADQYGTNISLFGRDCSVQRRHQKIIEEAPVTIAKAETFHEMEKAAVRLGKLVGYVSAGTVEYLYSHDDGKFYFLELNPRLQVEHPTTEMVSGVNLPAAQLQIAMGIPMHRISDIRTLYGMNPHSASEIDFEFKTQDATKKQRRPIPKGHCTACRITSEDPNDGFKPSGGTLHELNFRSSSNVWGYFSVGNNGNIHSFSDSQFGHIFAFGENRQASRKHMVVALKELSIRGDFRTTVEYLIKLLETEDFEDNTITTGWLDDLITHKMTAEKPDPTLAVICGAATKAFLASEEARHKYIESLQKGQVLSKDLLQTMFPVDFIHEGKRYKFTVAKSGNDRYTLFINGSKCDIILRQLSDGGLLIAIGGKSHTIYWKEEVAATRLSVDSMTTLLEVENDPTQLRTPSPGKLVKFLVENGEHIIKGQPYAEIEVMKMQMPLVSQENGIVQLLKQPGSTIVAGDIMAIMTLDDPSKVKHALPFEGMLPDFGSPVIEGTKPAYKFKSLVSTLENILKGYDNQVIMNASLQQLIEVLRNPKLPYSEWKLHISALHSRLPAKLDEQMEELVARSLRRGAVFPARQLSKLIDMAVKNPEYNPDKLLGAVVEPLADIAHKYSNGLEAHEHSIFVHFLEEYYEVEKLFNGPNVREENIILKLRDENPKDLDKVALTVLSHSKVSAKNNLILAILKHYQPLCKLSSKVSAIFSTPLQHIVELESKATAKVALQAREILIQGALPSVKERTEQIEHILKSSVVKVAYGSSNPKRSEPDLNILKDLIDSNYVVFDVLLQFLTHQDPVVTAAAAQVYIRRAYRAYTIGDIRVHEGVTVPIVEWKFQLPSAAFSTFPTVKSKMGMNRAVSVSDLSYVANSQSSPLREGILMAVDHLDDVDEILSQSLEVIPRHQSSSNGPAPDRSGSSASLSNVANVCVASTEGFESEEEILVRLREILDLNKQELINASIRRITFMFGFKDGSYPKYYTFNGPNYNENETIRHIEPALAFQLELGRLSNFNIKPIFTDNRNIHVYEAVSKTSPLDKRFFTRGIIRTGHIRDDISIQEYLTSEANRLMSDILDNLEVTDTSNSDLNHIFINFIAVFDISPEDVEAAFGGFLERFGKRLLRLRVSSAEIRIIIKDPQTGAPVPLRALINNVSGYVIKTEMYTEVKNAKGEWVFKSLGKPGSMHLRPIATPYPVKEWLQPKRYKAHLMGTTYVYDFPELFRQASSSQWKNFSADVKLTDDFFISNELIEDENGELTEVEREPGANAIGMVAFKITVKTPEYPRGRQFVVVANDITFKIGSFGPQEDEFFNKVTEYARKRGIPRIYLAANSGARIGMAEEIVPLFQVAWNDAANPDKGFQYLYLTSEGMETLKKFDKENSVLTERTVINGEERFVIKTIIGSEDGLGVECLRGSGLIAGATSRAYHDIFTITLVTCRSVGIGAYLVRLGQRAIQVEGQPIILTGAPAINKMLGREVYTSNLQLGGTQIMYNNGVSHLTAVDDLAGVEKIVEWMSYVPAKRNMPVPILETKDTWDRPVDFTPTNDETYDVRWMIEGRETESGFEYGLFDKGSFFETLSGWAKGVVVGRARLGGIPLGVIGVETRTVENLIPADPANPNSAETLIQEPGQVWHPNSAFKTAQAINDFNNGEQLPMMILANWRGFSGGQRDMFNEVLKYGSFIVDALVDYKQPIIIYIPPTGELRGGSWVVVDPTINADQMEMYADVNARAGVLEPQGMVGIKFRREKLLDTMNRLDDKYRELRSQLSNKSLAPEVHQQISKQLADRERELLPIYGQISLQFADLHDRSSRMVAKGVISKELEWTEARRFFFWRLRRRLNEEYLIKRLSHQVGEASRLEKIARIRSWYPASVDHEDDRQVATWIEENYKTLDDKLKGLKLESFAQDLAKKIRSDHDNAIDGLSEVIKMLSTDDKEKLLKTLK
Protocol: An exemplary procedure for the in vitro ACC inhibition assay, which can be used to determine the inhibitory action of compounds of the invention toward either human (hACC2) or fungal (fACC2) ACC2, follows. The ADP-Glo™ Kinase Assay kit from Promega was used. The ADP-Glo™ Kinase Assay is a luminescent ADP detection assay to measure enzymatic activity by quantifying the amount of ADP produced during an enzyme reaction. The assay is performed in two steps; first, after the enzyme reaction, an equal volume of ADP-Glo™ Reagent is added to terminate the reaction and deplete the remaining ATP. Second, the Kinase Detection Reagent is added to simultaneously convert ADP to ATP and allow the newly synthesized ATP to be measured using a luciferase/luciferin reaction. Luminescence can be correlated to ADP concentrations by using an ATP-to-ADP conversion curve. The detailed procedure is as follows. 50 μL of the compound being tested (600 μM in DMSO) was added to a 384-well dilution plate. The compound was diluted 1:3 in succession in DMSO for each row for 11 wells. 0.5 μL ACC2 working solution was added to 384-well white Optiplate assay plate. 0.5 μL diluted compound solution in each column from step 2 was added to assay plate, each row containing 2 replicates. […] The plates were incubated at room temperature for 15 minutes. 5 μL substrate working solution was added to each well to initiate reaction. Final ACC2 reaction concentrations consist of: 5 nM ACC2, 20 μM ATP, 20 μM acetyl-CoA, 12 mM NaHCO3, 0.01% Brij35, 2 mM DTT, 5% DMSO, test compound concentrations: 30 μM, 10 μM, 3.33 μM, 1.11 μM, 0.37 μM, 0.123 μM, 0.0411 μM, 0.0137 μM, 0.00457 μM, 0.00152 μM, and 0.00051 μM. Plates were incubated at room temperature for 60 minutes. 10 μL ADP glo reagent was added. Plates were incubated at room temperature for 40 minutes. 20 μL kinase detection reagent was added. Plates were incubated at room temperature for 40 minutes, and then read on a Perkin Elmer EnVision 2104 plate reader for luminescence as Relative Light Units (RLU).
Data for each concentration, as well as the positive and negative controls were averaged, and the standard deviation calculated. Percent inhibition was calculated by the formula: 100×(average negative control−compound)/(average negative control−average positive control). The IC50 for each compound was calculated by fitting the data with a non-linear regression equation: Y=Bottom+(Top-Bottom)/(1+10^((Log IC50−X)*Hill Slope)), where X is the log of compound concentration and Y is percent inhibition.
Compounds having an activity designated as “AA” provided an IC50 0.0006-0.003 μM; provided an “A” provided an IC50 0.003-0.01 μM; compounds having an activity designated as “B” provided an IC50 0.01-0.04 μM; and compounds having an activity designated as “C” provided an IC50>0.04 μM IC50. “NA” stands for “not assayed.”

[14] = ATCC90028, 3 replicates, MIC recorded at 48 h
[15] = ATCC6258, 3 replicates, MIC recorded at 48 h
[16] = ATCC22019, 3 replicates, MIC recorded at 48 h

human (hACC2) ACC2, sequence (O00763 whole entry): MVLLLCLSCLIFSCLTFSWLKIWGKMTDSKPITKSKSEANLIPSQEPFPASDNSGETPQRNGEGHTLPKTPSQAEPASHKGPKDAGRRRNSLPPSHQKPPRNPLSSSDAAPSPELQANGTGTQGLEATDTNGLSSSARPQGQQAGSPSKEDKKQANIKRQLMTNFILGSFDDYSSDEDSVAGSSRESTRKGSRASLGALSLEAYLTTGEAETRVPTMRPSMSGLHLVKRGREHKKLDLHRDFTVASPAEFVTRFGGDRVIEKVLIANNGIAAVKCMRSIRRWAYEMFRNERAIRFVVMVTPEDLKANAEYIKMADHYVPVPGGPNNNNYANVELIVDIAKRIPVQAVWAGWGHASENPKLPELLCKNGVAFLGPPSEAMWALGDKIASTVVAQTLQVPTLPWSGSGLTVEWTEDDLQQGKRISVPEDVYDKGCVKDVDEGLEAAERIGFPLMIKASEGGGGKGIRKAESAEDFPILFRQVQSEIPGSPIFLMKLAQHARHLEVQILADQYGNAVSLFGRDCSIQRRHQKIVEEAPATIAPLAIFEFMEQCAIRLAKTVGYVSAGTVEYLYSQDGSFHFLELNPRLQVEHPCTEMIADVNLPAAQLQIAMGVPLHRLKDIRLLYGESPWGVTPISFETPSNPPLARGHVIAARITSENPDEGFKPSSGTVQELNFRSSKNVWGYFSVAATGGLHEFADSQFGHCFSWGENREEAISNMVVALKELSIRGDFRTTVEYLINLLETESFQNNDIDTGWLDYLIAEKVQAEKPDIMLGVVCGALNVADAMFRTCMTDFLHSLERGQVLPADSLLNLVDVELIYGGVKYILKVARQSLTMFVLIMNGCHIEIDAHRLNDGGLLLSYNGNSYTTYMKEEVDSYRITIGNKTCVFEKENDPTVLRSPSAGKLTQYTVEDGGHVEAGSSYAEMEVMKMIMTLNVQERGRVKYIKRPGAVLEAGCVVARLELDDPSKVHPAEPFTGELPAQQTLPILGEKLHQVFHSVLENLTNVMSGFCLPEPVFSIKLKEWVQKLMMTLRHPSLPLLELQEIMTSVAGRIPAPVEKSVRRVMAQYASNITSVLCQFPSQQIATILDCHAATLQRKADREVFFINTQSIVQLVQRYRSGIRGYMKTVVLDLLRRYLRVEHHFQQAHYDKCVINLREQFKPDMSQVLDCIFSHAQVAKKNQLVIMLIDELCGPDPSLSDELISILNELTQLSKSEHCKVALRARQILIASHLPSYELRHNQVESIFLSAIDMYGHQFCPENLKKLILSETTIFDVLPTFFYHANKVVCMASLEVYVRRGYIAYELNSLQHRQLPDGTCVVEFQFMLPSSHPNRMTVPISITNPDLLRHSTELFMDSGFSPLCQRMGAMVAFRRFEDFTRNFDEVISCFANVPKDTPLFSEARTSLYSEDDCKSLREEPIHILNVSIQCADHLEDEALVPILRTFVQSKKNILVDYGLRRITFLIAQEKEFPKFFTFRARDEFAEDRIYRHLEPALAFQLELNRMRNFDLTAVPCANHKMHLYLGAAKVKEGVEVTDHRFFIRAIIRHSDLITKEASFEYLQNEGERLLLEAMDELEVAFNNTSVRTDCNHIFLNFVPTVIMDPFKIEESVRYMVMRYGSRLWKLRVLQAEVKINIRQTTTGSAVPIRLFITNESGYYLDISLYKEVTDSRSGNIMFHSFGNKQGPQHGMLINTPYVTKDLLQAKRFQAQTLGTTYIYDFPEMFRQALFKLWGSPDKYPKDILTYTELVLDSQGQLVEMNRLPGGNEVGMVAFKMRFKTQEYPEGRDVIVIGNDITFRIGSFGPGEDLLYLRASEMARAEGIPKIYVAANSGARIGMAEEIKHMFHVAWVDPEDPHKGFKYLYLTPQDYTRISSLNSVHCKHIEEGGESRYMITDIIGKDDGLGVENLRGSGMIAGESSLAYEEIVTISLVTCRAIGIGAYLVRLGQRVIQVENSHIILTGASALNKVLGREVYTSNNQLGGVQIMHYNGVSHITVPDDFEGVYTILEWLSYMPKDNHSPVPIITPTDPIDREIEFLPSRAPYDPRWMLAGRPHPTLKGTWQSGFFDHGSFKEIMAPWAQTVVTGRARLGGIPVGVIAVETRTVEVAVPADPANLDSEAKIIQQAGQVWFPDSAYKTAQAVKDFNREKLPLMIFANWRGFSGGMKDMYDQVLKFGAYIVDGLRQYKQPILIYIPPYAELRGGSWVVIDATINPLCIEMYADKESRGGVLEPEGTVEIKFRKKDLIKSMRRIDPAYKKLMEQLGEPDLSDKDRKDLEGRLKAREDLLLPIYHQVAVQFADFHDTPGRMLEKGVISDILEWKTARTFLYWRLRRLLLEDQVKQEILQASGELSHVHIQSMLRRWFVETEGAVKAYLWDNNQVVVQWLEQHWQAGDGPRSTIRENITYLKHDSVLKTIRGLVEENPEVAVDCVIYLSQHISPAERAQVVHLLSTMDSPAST

| Compound | pIC50 [1] | MIC [10, 14] | MIC [11, 15] | MIC [12, 16] | pIC50 [13] | further results |
| --- | --- | --- | --- | --- | --- | --- |
| COc1ccc(F)cc1[C@H](Cn1c(=O)n(C(C)(C)C(=O)NC(C)C)c(=O)c2c(C)c(-n3cccn3)sc21)OC(C)C.I [Compound I-1, (R)-2-(I-(2-(5-fluoro-2-methoxyphenyl)-2-isopropoxyethyl)-5-methyl-2,4-dioxo-6-(1H-pyrazol-1-yl)-1,4-dihydrothieno[2,3-d]pyrimidin-3(2H)-yl)-N-isopropyl-2-methylpropanamide] | 7.40 to 8.00 | 2.1 to 4 µg/mL | 0.25 to 1 µg/mL | 2.1 to 4 µg/mL | 8.52 to 9.22 | IC90 ([2]; Table 4a): 0.4 µg/mL; IC90 ([2]; Table 4b): 0.4 µg/mL; IC90 ([3]; Table 4a): 2 µg/mL; IC90 ([3]; Table 4b): 2 µg/mL; IC90 ([4]; Table 4a): 2 µg/mL; IC90 ([4]; Table 4b): 2 µg/mL; Concentration at 90% Inhibition St ([5]; Table 4b): D (“D” provided a compound concentration of >50 ppm at 90% inhibition of fungal pathogens); IC90 ([5]; Zymoseptoria tritici, Table 4a, read-out: Concentration at 90% Inhibition St): > 50 µg/mL; IC90 ([6]; Table 4a): 0.08 µg/mL; IC90 ([6]; Table 4b): 0.08 µg/mL; IC90 ([7]; Table 4a): 2 µg/mL; IC90 ([7]; Table 4b): 2 µg/mL; IC90 ([8]; Table 4a): 0.4 µg/mL; IC90 ([8]; Table 4b): 0.4 µg/mL; IC90 ([9]; Phytophthora capsici, Table 4a, read-out: Concentration at 90% Inhibition Pc): > 50 µg/mL; Concentration at 90% Inhibition Pc ([9]; Table 4b): D (“D” provided a compound concentration of >50 ppm at 90% inhibition of fungal pathogens) |
| COc1ccc(F)cc1[C@H](Cn1c(=O)n(C(C)C(=O)N2CCCC2)c(=O)c2c(C)c(-n3cccn3)sc21)OCCO (stereo partly shown) [Compound I-58] | 8.00 to 8.52 | > 4.1 µg/mL | 2.1 to 4 µg/mL (≈ 3.59 to 6.83 µM) | > 4.1 µg/mL | 8.52 to 9.22 | – |
| COc1ccc(F)cc1[C@H](Cn1c(=O)n(C(C)C(=O)NC(C)C)c(=O)c2c(C)c(-n3cccn3)sc21)OCCO (stereo partly shown) [Compound I-59] | 8.00 to 8.52 | > 4.1 µg/mL | > 4.1 µg/mL | > 4.1 µg/mL | 8.52 to 9.22 | – |
| COc1ccc(F)cc1[C@H](Cn1c(=O)n(C(C)C(=O)O)c(=O)c2c(C)c(-n3cccn3)sc21)OCCO (stereo partly shown) [Compound I-60] | 8.00 to 8.52 | > 4.1 µg/mL | > 4.1 µg/mL | > 4.1 µg/mL | 8.52 to 9.22 | – |
| COc1ccc(F)cc1[C@H](Cn1c(=O)n(C(C)C(N)=O)c(=O)c2c(C)c(-n3cccn3)sc21)OCCO (stereo partly shown) [Compound I-61] | 7.40 to 8.00 | > 4.1 µg/mL | > 4.1 µg/mL | > 4.1 µg/mL | 8.52 to 9.22 | – |
| COc1ccc(F)cc1[C@H](Cn1c(=O)n(C(C)C(=O)O)c(=O)c2c(C)c(-n3cccn3)sc21)OCC(C)(C)O (stereo partly shown) [Compound I-62] | 8.00 to 8.52 | > 4.1 µg/mL | > 4.1 µg/mL | > 4.1 µg/mL | 8.52 to 9.22 | – |
| COCCOc1ccc(F)cc1[C@H](Cn1c(=O)n(C(C)(C)C(N)=O)c(=O)c2c(C)c(-n3cccn3)sc21)OC(C)C [Compound I-63] | 8.00 to 8.52 | > 4.1 µg/mL | > 4.1 µg/mL | > 4.1 µg/mL | 8.52 to 9.22 | – |
| COCCOc1ccc(F)cc1[C@H](Cn1c(=O)n(C(C)(C)C(=O)O)c(=O)c2c(C)c(-n3cccn3)sc21)OC(C)C [Compound I-64] | 8.00 to 8.52 | > 4.1 µg/mL | > 4.1 µg/mL | > 4.1 µg/mL | 8.52 to 9.22 | – |
| COc1ccc(F)cc1[C@H](Cn1c(=O)n(C(C)C(=O)O)c(=O)c2c(C)c(-n3cccn3)sc21)OCC(C)=O (stereo partly shown) [Compound I-65] | 7.40 to 8.00 | > 4.1 µg/mL | > 4.1 µg/mL | > 4.1 µg/mL | 8.00 to 8.52 | – |
| COc1ccc(F)cc1[C@H](Cn1c(=O)n(C(C)C(=O)N2CCCC2)c(=O)c2c(C)c(-n3cccn3)sc21)OCC(C)(C)O (stereo partly shown) [Compound I-66] | 7.40 to 8.00 | > 4.1 µg/mL | > 4.1 µg/mL | > 4.1 µg/mL | 8.52 to 9.22 | – |
| COc1ccc(F)cc1[C@H](Cn1c(=O)n(C(C)C(=O)NC(C)C)c(=O)c2c(C)c(-n3cccn3)sc21)OCC(C)(C)O (stereo partly shown) [Compound I-67] | 7.40 to 8.00 | > 4.1 µg/mL | > 4.1 µg/mL | > 4.1 µg/mL | 8.52 to 9.22 | – |
| COc1ccc(F)cc1[C@H](Cn1c(=O)n(C(C)C(N)=O)c(=O)c2c(C)c(-n3cccn3)sc21)OCC(C)(C)O (stereo partly shown) [Compound I-68] | 7.40 to 8.00 | > 4.1 µg/mL | > 4.1 µg/mL | > 4.1 µg/mL | 8.52 to 9.22 | – |
| COCCCO[C@@H](Cn1c(=O)n(C(C)C(=O)NC(C)C)c(=O)c2c(C)c(-n3cccn3)sc21)c1cc(F)ccc1OC (stereo partly shown) [Compound I-69] | 7.40 to 8.00 | > 4.1 µg/mL | > 4.1 µg/mL | > 4.1 µg/mL | 8.52 to 9.22 | – |
| COCCCO[C@@H](Cn1c(=O)n(C(C)C(=O)N2CCCC2)c(=O)c2c(C)c(-n3cccn3)sc21)c1cc(F)ccc1OC (stereo partly shown) [Compound I-70] | 7.40 to 8.00 | > 4.1 µg/mL | > 4.1 µg/mL | > 4.1 µg/mL | 8.52 to 9.22 | – |
| COc1ccccc1[C@H](Cn1c(=O)n(C(C)(C)C(=O)O)c(=O)c2c(C)c(-n3cccn3)sc21)OC1CCOCC1 [Compound I-71] | 7.40 to 8.00 | > 4.1 µg/mL | > 4.1 µg/mL | > 4.1 µg/mL | 8.52 to 9.22 | – |
| COc1ccccc1[C@H](Cn1c(=O)n(C(C)(C)C(=O)O)c(=O)c2c(C)c(-n3cccn3)sc21)O[C@H]1CC[C@@H](O)CC1 [Compound I-72] | 8.00 to 8.52 | > 4.1 µg/mL | > 4.1 µg/mL | > 4.1 µg/mL | 8.52 to 9.22 | – |
| COCCO[C@@H](Cn1c(=O)n([C@@H](C)C(=O)NC(C)C)c(=O)c2c(C)c(-n3cccn3)sc21)c1cc(F)ccc1OC [Compound I-73, (S)-2-(1-((R)-2-(5-fluoro-2-methoxyphenyl)-2-(2-methoxy-ethoxy)ethyl)-5-methyl-2,4-dioxo-6-(1H-pyrazol-1-yl)-1,4-dihydrothieno[2,3-d]pyrimidin-3(2H)-yl)-N-isopropylpropanamide] | 8.00 to 8.52 | 2.1 to 4 µg/mL (≈ 3.57 to 6.81 µM) | > 4.1 µg/mL | 2.1 to 4 µg/mL (≈ 3.57 to 6.81 µM) | 8.52 to 9.22 | – |
| COCCO[C@@H](Cn1c(=O)n([C@H](C)C(=O)NC(C)C)c(=O)c2c(C)c(-n3cccn3)sc21)c1cc(F)ccc1OC [Compound I-74, (R)-2-(1-((R)-2-(5-fluoro-2-methoxyphenyl)-2-(2-methoxy-ethoxy)ethyl)-5-methyl-2,4-dioxo-6-(1H-pyrazol-1-yl)-1,4-dihydrothieno[2,3-d]pyrimidin-3(2H)-yl)-N-isopropylpropanamide] | < 7.40 | > 4.1 µg/mL | > 4.1 µg/mL | > 4.1 µg/mL | 7.40 to 8.00 | – |
| COc1ccccc1[C@H](Cn1c(=O)n(C(C)(C)C(=O)NC(C)C)c(=O)c2c(C)c(-n3cccn3)sc21)OCCC#N [Compound I-80, (R)-2-(1-(2-(2-cyanoethoxy)-2-(2-methoxyphenyl)ethyl)-5-methyl-2,4-dioxo-6-(1H-pyrazol-1-yl)-1,4-dihydrothieno[2,3-d]pyrimidin-3(2H)-yl)-N-isopropyl-2-methylpropanamide] | 7.40 to 8.00 | – | – | – | 8.00 to 8.52 | MIC ([10]; ATCC90028, 48 h): > 4.1 µg/mL; MIC ([11]; ATCC6258, 48 h): > 4.1 µg/mL; MIC ([12]; ATCC22019, 48 h): > 4.1 µg/mL |
| COc1ccccc1[C@H](Cn1c(=O)n(C(C)(C)C(N)=O)c(=O)c2c(C)c(-n3cccn3)sc21)OCCC#N [Compound I-83] | 7.40 to 8.00 | > 4.1 µg/mL | > 4.1 µg/mL | > 4.1 µg/mL | 8.00 to 8.52 | – |
| COc1ccccc1[C@H](Cn1c(=O)n(C(C)(C)C(=O)N2CCCC2)c(=O)c2c(C)c(-n3cccn3)sc21)OCCC#N [Compound I-84, (R)-3-(I-(2-methoxyphenyl)-2-(5-methyl-3-(2-methyl-1-oxo-1-(pyrrolidin-1-yl)propan-2-yl)-2,4-dioxo-6-(1H-pyrazol-1-yl)-3,4-dihydrothieno[2,3-d]pyrimidin-1(2H)-yl)ethoxy)propanenitrile] | 7.40 to 8.00 | > 4.1 µg/mL | > 4.1 µg/mL | > 4.1 µg/mL | 8.52 to 9.22 | – |
